This is an account of results in EP0308065A2, “Therapeutic nucleosides” (priority 1987, dated 1989).

Structures can show the parent of a compound that is named as a salt.

A short description of series [1]: oral bioavailability: urinary recovery as acyclovir after gavage. To be noted: Long Evans rats, dose equivalent to 25 mg/kg acyclovir, urine collected 24 and 48 hours post-dose.
Procedure: Long Evans Rats were adminstered the compound to be tested by gavage at a dose equivalent to 25 mg/kg acyclovir. The urine was collected for 24 and 48 hours post-dose, ultrafiltered, and analysed by reverse-phase high-pressure liquid chromatography. The oral bioavailability of the compound was expressed as the percent of the dose excreted in the urine as acyclovir.
The nature of series [2]: growth inhibition of uninfected mammalian cells (D98). In kind it is cell-based. To be noted: three days exposure, D-98 cells (human), read-out: Cell Toxicity (% of control at 100µm) D-98 Cells. As for the experimental part:
(§1) The capability of candidate compounds to inhibit the growth of D98 cells (human) and L cells (murine) was measured by determination of cell number following three days exposure of a standard number of cells to various dilutions of compound (Rideout, J. L., Krenitsky, T.A., Koszalka, G.W., Cohn, N.K., Chao, E.Y. Elion, G.B., Latter, V.S., and Williams, R.B. (1982) J. Med Chem. 25: 1040-1044). The cell number was then compared to the number obtained in the absence of compound. Cell enumeration was performed by either direct particle counts following trypsinization of the monolayer, or by spectrophotometric determination of the amount of vital stain taken up by the cells.
(§2) The concentration of compound resulting in 50% of control values (IC50) was calculated either by direct interpolation from graphs of the log of the compound concentration versus the percent of control value, or from a computer program which analyses the data according to the same algorithm. Data in the range of 20% to 80% of control were used in these calculations.

Series [3] can be described thus: growth inhibition of uninfected mammalian cells (L cells). Type of series: cell-based. Particulars: mouse, three days exposure, L cells (murine), read-out: Cell Toxicity (% of control at 100µm) L-Cells. As for the experimental part: as §1, §2
Series [4] deals with Herpes Simplex Virus (HSV 1). Description: plaque reduction assay of HSV 1 in monolayers of Vero cells. Type of series: cell-based. Particulars: HSV 1, Vero cells, read-out: IC₅₀. As for the experimental part:
Herpes Simplex Virus (HSV 1) was assayed in monolayers of Vero cells in multiwell trays. Activity of compounds was determined in the plaque reduction assay, in which a cell monolayer was infected with a suspension of HSV 1, and then overlaid with nutrient agarose in the form of a gel to ensure that there was no spread of virus throughout the culture. A range of concentrations of compound of known molarity was incorporated in the nutrient agarose overlay. Plaque numbers at each concentration were expressed as percentages of the control and a dose-response curve was drawn. From this curve the 50% inhibitory concentration (IC₅₀) was estimated.
(Plaque reduction counts the foci of infection that form in a cell layer.)

For series [5] the following is noted: humans, after oral administration (background statement); cited from earlier work.

Take `C[C@H](N)C(=O)OCCOCn1cnc2c(=O)[nH]c(N)nc21` [L -alanyl ester of ACV]: the “Urinary Recovery (% of dose) as acyclovir” value (from here on “Urinary Recovery (% of dose)”) in series [1] was 34 % of dose.

Take `CC(C)[C@H](N)C(=O)OCCOCn1cnc2c(=O)[nH]c(N)nc21` [Example 1B, 2-(2-Amino-1,6-dihydro-6-oxo-9H(purin-9-yl)methoxy) ethyl L-valinate hydrochloride monohydrate]: the activity at 72 h, 100 µM in series [2] stood at 91%; in series [3] it was 85%.

As to `CC[C@H](C)[C@H](N)C(=O)OCCOCn1cnc2c(=O)[nH]c(N)nc21` [Example 2, 2-(2-amino-1,6-dihydro-6-oxo-9H(purin-9-yl)methoxy)ethyl L-isoleucinate hydrochloride], in series [4], the IC50 came out at 3800 nM. Also, the activity at 72 h, 100 µM in series [2] is 80%; in series [3] it was 83%. Also, in series [1], the “Urinary Recovery (% of dose)” value is 50 % of dose.

Regarding `Nc1nc2c(ncn2COCCO)c(=O)[nH]1` [Acyclovir, 9-(2-Hydroxyethoxymethyl)guanine], in series [4], the IC50 was 80 to 100 nM. Also, the activity at 72 h, 100 µM in series [2] was determined as 99%; in series [3], 72%. Also, the “recovery in the urine” value in series [5] is given as 20%.

With `NCC(=O)OCCOCn1cnc2c(=O)[nH]c(N)nc21` [Glycyl ester of ACV], the “Urinary Recovery (% of dose)” value in series [1] is 30 % of dose.
